In patent publication US10280179B2, “Spiroquinoxaline derivatives as inhibitors of non-apoptotic regulated cell-death” (Helmholtz Zentrum Munchen—Deutches Forschungszentrum Fur …, priority 2013, dated 2019) one finds IC50 and CC50 data, which are given here for 15 molecules.

pIC50: −log10 of the molar value. Some results are limits rather than exact numbers.

In one data set the test system is human neuroblastoma cell line SH-SY5Y. The data set can be described thus: Inhibition of BSO-induced non-apoptotic cell death (Example B.1). In kind it is cell-based. Particulars: SH-SY5Y cells, 50 μM BSO, 72 hours, read-out: SH-SY5Y/BSO IC50. The text has this: Inhibition of BSO-Induced Non-Apoptotic Cell Death by Compounds Disclosed Herein
L-Buthionine sulfoximine (BSO) is a well-known glutathione (GSH) depletory, which inhibits gamma-glutamyl-cysteine-synthetase, the enzyme catalyzing the rate-limiting step in GSH biosynthesis. The human neuroblastoma cell line SH-SY5Y is sensitive to BSO-induced intracellular glutathione depletion, which causes high levels of reactive oxygen species (ROS) and cellular stress mimicking cellular conditions following ischemia (cf., e.g., Yamada et al., Neurochem. Int. 59:1003-9 (2011)).
Compounds disclosed herein were evaluated for their ability to promote cell survival upon administration of a lethal dose of BSO to cell-culture medium. Briefly, SH-SY5Y cells (ATCC® CRL-2266™) were propagated in DMEM supplemented with 10% FBS/1% Penicillin-Streptomycin, and then seeded onto 96-well plates at a concentration of 750 cells/well in 100 μL of media, to which BSO (Sigma Aldrich) was added (to a final concentration of 50 μM) together with increasing concentrations of the compound to be tested, and the plates incubated at 37° C./5% CO2 for 72 hours. Compound dilutions (0.5 pM to 100 μM) were prepared from 10 mM stocks dissolved in DMSO and diluted in media. Cells treated with BSO alone were used as negative control and alpha-Tocopherol (Sigma Aldrich) was used as positive control. Compound concentrations were tested in triplicate. After incubation, cell survival was detected using the live/dead cell assay AquaBluer™ (MultiTarget Pharmaceuticals) and quantified using a fluorescence plate reader (excitation filter: 530-560 nm/emission filter: 590 nm) (SpectraMax M4; Molecular Devices). Fluorescence data so obtained was normalised to the percentage of surviving cells and IC50 values calculated using the GraphPad Prism (GraphPad Software, Inc) software package.
Consider `FC(F)(F)c1cccc(CNC2=Nc3ccccc3NC23CCNCC3)c1` [N-23], for which the pIC50 was greater than 7.70.
On to `Cc1cc2c(cc1C)NC1(CCCCCC1)C(NCc1cccc(Cl)c1)=N2` [C-255], for which the pIC50 is greater than 7.30.
For the molecule `CN1CCC2(CC1)Nc1ccccc1N=C2NCc1ccccc1` [N-204], the pIC50 is greater than 7.30.
Regarding `FC1(F)Oc2cc3c(cc2O1)NC1(CCOCC1)C(NCc1ccccc1)=N3` [O/S-366], the pIC50 was greater than 7.30.
Take `Clc1cc2c(cc1Cl)NC1(CCNCC1)C(NCc1ccccc1)=N2` [N-205]: the pIC50 was greater than 7.70.
With `Cc1cccc(CNC2=Nc3cc(Cl)c(Cl)cc3NC23CCOCC3)c1` [O/S-342], the pIC50 was greater than 7.00.
`Clc1ccccc1CNC1=Nc2ccccc2NC12CCCCC2` [C-1]: the pIC50 was greater than 6.30.
Same read-out and setting: in the case of `c1ccc(CNC2=Nc3ccccc3NC23CCCCC3)cc1` [C-215] it was greater than 6.70.
The same measure, in the same setting: in the case of `Clc1ccc(CNC2=Nc3cc(Cl)c(Cl)cc3NC23CCNCC3)cc1Cl` [N-258] it was greater than 7.70; in that of `Cc1cc2c(cc1C)NC1(CCNCC1)C(NCc1ccccc1)=N2` [N-210], greater than 7.30; in that of `Cc1ccccc1CNC1=Nc2ccccc2NC12CCNCC2` [N-10], greater than 7.70.
On to `O=S1(=O)CCC2(CC1)Nc1ccccc1N=C2NCc1ccccc1` [O/S-363], for which the pIC50 is greater than 5.70.
Turning to `Fc1cc(Cl)ccc1CNC1=Nc2ccccc2NC12CCNCC2` [N-61], the pIC50 was greater than 7.30.
For `Fc1cccc(F)c1CNC1=Nc2ccccc2NC12CCCCCC2` [C-266], the pIC50 is greater than 7.00.
Still for that read-out and setting: as for `CCCCCCCCCCCCN1CCC2(CC1)Nc1ccccc1N=C2NCc1ccccc1` [N-261], the figure is greater than 7.70.

The data set is the same for the next values; noted with them: SH-SY5Y cells, BSO 50 μM, 72 hours, cell survival (AquaBluer), read-out: SH-SY5Y/BSO (Example B.1) IC50.
`Cc1ccccc1CNC1=Nc2ccccc2NC12CCNCC2` [N-10]: the pIC50 is roughly 8.30.

For the next data set, the system named is Pfa1 cells. As to the kind of experiment: Inhibition of non-apoptotic cell death after tamoxifen-induced GPx4 knockout in a recombinant cell line (Example B.4). It counts as cell-based. Particulars: Mus musculus, read-out: Pfa1/TAM IC50. The text has this: Inhibition of Non-Apoptotic Cell-Death by Compounds Disclosed Herein Using a Recombinant Cell Line
To combat high intracellular ROS levels, mammalian cells have evolved an intricate network of ROS scavenging in cells, in which the thioredoxin and glutathione (GSH) dependent systems prevail. […] Knockout of GPx4 in neurons causes massive neurodegeneration in cortical, cerebellar and hippocampal neurons underscoring the high relevance of ROS-induced cell death signaling in the brain. Briefly, immortalised fibroblasts from these mice were made to contain tamoxifen-inducible CreERT2, which catalyzes the functional ablation of both copies of GPx4 and resulting in a complete knockout of GPx4, a massive ROS burst, and cell death in cell culture. These cells (Pfa1 cells) were used to characterize compounds of the present invention, whereby tamoxifen (TAM) was given on day 0 along with the compound under test, and 72 hours later cell survival was evaluated using AlamarBlue.
Turning to `FC(F)(F)c1cccc(CNC2=Nc3ccccc3NC23CCNCC3)c1` [N-23], the pIC50 was greater than 7.30.
Turning to `Cc1cc2c(cc1C)NC1(CCCCCC1)C(NCc1cccc(Cl)c1)=N2` [C-255], the pIC50 is greater than 6.70.
For the molecule `CN1CCC2(CC1)Nc1ccccc1N=C2NCc1ccccc1` [N-204], the pIC50 is greater than 6.30.
`FC1(F)Oc2cc3c(cc2O1)NC1(CCOCC1)C(NCc1ccccc1)=N3` [O/S-366]: the pIC50 is greater than 7.00.
As to `Clc1cc2c(cc1Cl)NC1(CCNCC1)C(NCc1ccccc1)=N2` [N-205], the pIC50 is greater than 8.00.
Take `Cc1cccc(CNC2=Nc3cc(Cl)c(Cl)cc3NC23CCOCC3)c1` [O/S-342]: the pIC50 was greater than 7.30.
The same measure, in the same setting: in the case of `Clc1ccccc1CNC1=Nc2ccccc2NC12CCCCC2` [C-1] it was greater than 6.30; in that of `c1ccc(CNC2=Nc3ccccc3NC23CCCCC3)cc1` [C-215], greater than 6.00.
On the same count and under the same terms, as for `Clc1ccc(CNC2=Nc3cc(Cl)c(Cl)cc3NC23CCNCC3)cc1Cl` [N-258], the figure is greater than 7.00; as for `Cc1cc2c(cc1C)NC1(CCNCC1)C(NCc1ccccc1)=N2` [N-210], greater than 8.00; as for `Cc1ccccc1CNC1=Nc2ccccc2NC12CCNCC2` [N-10], greater than 7.00.
For the molecule `O=S1(=O)CCC2(CC1)Nc1ccccc1N=C2NCc1ccccc1` [O/S-363], the pIC50 was greater than 5.70.
On to `Fc1cc(Cl)ccc1CNC1=Nc2ccccc2NC12CCNCC2` [N-61], for which the pIC50 was greater than 7.30.
In the case of `Fc1cccc(F)c1CNC1=Nc2ccccc2NC12CCCCCC2` [C-266], the pIC50 is greater than 6.30.
Still for that read-out and setting: in the case of `CCCCCCCCCCCCN1CCC2(CC1)Nc1ccccc1N=C2NCc1ccccc1` [N-261] it was greater than 7.00.

The next data set has as its system mouse hippocampal cell line (Ht22). The data set can be described thus: Inhibition of glutamate-induced non-apoptotic cell death (Example B.2). It counts as cell-based. Particulars: HT-22, Ht22 cells, glutamate 5 mM, 72 hours, cell survival, read-out: Ht22/GLU (Example B.2) IC50. The text has this: Inhibition of Glutamate-Induced Non-Apoptotic Cell Death by Compounds of the Present Invention
Glutamate toxicity is conferred on cells from the mouse hippocampal cell line (Ht22) by inhibition of the cysteine/glutamate antiporter, System xc-, leading to impaired cysteine uptake and subsequent GSH depletion. This model is frequently used for mimicking glutathione depletion following oxidative stress in stroke, brain trauma and other neurodegenerative diseases and cellular conditions following ischemia (for example: van Leyen et al, J. Neurochem. 92:824-30 (2005)).
Compounds disclosed herein were evaluated for their ability to promote cell survival upon administration of a lethal dose of glutamate (GLU) to the cell-culture medium.
Briefly, Ht22 cells (ATCC) were propagated DMEM supplemented with 10% FBS/1% Penicillin-Streptomycin, and then seeded onto 96-well plates at a concentration of 2,000 cells/well in 100 μL of MEDIA, simultaneously with glutamate (Sigma Aldrich) to a final concentration of 5 mM, together with increasing concentrations of the compound to be tested (0.5 pM to 100 μM), and the plates incubated at 37° C./5% CO2 for 72 hours. Compound dilutions were prepared from 10 mM stocks dissolved in DMSO and diluted in media. Cells treated with glutamate alone were used as negative control and alpha-tocopherol (Sigma Aldrich) was used as positive control. Compound concentrations were tested in triplicate. After incubation, cell survival was detected and quantified as described in Example B.1.
Turning to `Cc1ccccc1CNC1=Nc2ccccc2NC12CCNCC2` [N-10], the pIC50 was 7.30 to 8.00.

Staying with this data set, now noted: HT-22, Ht22 cells, glutamate-induced cell death, read-out: Ht22/GLU.
Turning to `FC(F)(F)c1cccc(CNC2=Nc3ccccc3NC23CCNCC3)c1` [N-23], the pIC50 was greater than 7.30.
Consider `Cc1cc2c(cc1C)NC1(CCCCCC1)C(NCc1cccc(Cl)c1)=N2` [C-255], for which the pIC50 was greater than 6.70.
Still for that read-out and setting: in the case of `CN1CCC2(CC1)Nc1ccccc1N=C2NCc1ccccc1` [N-204] it was greater than 6.30.
Regarding `FC1(F)Oc2cc3c(cc2O1)NC1(CCOCC1)C(NCc1ccccc1)=N3` [O/S-366], the pIC50 is greater than 7.00.
Turning to `Clc1cc2c(cc1Cl)NC1(CCNCC1)C(NCc1ccccc1)=N2` [N-205], the pIC50 is greater than 7.30.
As for `Cc1cccc(CNC2=Nc3cc(Cl)c(Cl)cc3NC23CCOCC3)c1` [O/S-342], the pIC50 was greater than 6.30.
On to `Clc1ccccc1CNC1=Nc2ccccc2NC12CCCCC2` [C-1], for which the pIC50 is greater than 6.00.
Regarding `c1ccc(CNC2=Nc3ccccc3NC23CCCCC3)cc1` [C-215], the pIC50 was greater than 6.00.
Same read-out and setting: as for `Clc1ccc(CNC2=Nc3cc(Cl)c(Cl)cc3NC23CCNCC3)cc1Cl` [N-258], the figure is greater than 7.30; as for `Cc1cc2c(cc1C)NC1(CCNCC1)C(NCc1ccccc1)=N2` [N-210], greater than 7.30.
Same read-out and setting: as for `Cc1ccccc1CNC1=Nc2ccccc2NC12CCNCC2` [N-10], the figure is greater than 7.30.
For the molecule `O=S1(=O)CCC2(CC1)Nc1ccccc1N=C2NCc1ccccc1` [O/S-363], the pIC50 was greater than 5.30.
For `Fc1cc(Cl)ccc1CNC1=Nc2ccccc2NC12CCNCC2` [N-61], the pIC50 was greater than 7.30.
`Fc1cccc(F)c1CNC1=Nc2ccccc2NC12CCCCCC2` [C-266]: the pIC50 was greater than 6.30.
Turning to `CCCCCCCCCCCCN1CCC2(CC1)Nc1ccccc1N=C2NCc1ccccc1` [N-261], the pIC50 was greater than 6.70.

System in the next data set: not listed separately
As to the kind of experiment: Cellular toxicity, same assay as Example B.4 without TAM (Example B.5). It counts as cell-based. Particulars: mouse; Pfa1 cells without TAM; read-out: TC50 (the source's name). The source says: Cellular Toxicity of Compounds of the Invention
An estimate of the toxicity for compounds of the invention was obtained by using the same assay as described in Example B.4, but without the addition of TAM. […] Such TC50 values obtained for certain compounds disclosed herein, together with an approximate therapeutic window (estimated by dividing each TC50 by the corresponding IC50 determined from example B.4) are shown in Table 3.
As for `FC(F)(F)c1cccc(CNC2=Nc3ccccc3NC23CCNCC3)c1` [N-23], the CC50 lay within 20000 to 50000 nM.
Take `Cc1cc2c(cc1C)NC1(CCCCCC1)C(NCc1cccc(Cl)c1)=N2` [C-255]: the CC50 was 5000 to 10000 nM.
For the molecule `CN1CCC2(CC1)Nc1ccccc1N=C2NCc1ccccc1` [N-204], the CC50 fell in the range of 20000 to 50000 nM.
Take `FC1(F)Oc2cc3c(cc2O1)NC1(CCOCC1)C(NCc1ccccc1)=N3` [O/S-366]: the CC50 was in the range of 20000 to 50000 nM.
`Clc1cc2c(cc1Cl)NC1(CCNCC1)C(NCc1ccccc1)=N2` [N-205]: the CC50 lay in the range of 1000 to 2000 nM.
In the case of `Cc1cccc(CNC2=Nc3cc(Cl)c(Cl)cc3NC23CCOCC3)c1` [O/S-342], the CC50 lay in the range of 20000 to 50000 nM.
As for `Clc1ccccc1CNC1=Nc2ccccc2NC12CCCCC2` [C-1], the CC50 is 20000 to 50000 nM.
On to `c1ccc(CNC2=Nc3ccccc3NC23CCCCC3)cc1` [C-215], for which the CC50 fell in the range of 20000 to 50000 nM.
Take `Clc1ccc(CNC2=Nc3cc(Cl)c(Cl)cc3NC23CCNCC3)cc1Cl` [N-258]: the CC50 was in the range of 100 to 200 nM.
Turning to `Cc1cc2c(cc1C)NC1(CCNCC1)C(NCc1ccccc1)=N2` [N-210], the CC50 was 2000 to 5000 nM.
In the case of `Cc1ccccc1CNC1=Nc2ccccc2NC12CCNCC2` [N-10], the CC50 was in the range of 5000 to 10000 nM.
Turning to `O=S1(=O)CCC2(CC1)Nc1ccccc1N=C2NCc1ccccc1` [O/S-363], the CC50 lay within 10000 to 20000 nM.
On to `Fc1cc(Cl)ccc1CNC1=Nc2ccccc2NC12CCNCC2` [N-61], for which the CC50 fell in the range of 20000 to 50000 nM.
For `Fc1cccc(F)c1CNC1=Nc2ccccc2NC12CCCCCC2` [C-266], the CC50 was in the range of 10000 to 20000 nM.
With `CCCCCCCCCCCCN1CCC2(CC1)Nc1ccccc1N=C2NCc1ccccc1` [N-261], the CC50 lay in the range of 2000 to 5000 nM.
